Assay [1] has as its target PDE10A (Homo sapiens (Human), UniProt Q9Y233). The assay is described as follows: Measurement of PDE10A inhibitory activity-2 (PDE10A fraction prepared from MOLT-4 cells). The following applies: PDE10A fraction from MOLT-4 cells (peak around 250 mM NaCl). Format: biochemical. The gist of the method:
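Enzyme source was a PDE10A-containing fraction from MOLT-4 cell soluble extract, resolved by HiTrap Q anion exchange with a 0–0.8 M NaCl gradient and selected by cAMP-hydrolysing activity. IC50 determined with this fraction by the same procedure as the preceding PDE10A assay.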

The subject of assay [2] is Male C57BL/6 Cr mice. Nature of the assay: Test on suppression of phencyclidine-induced hyperlocomotion in mice. Format: in vivo. The settings on record: Mus musculus, oral, calculated by the linear regression method.
Assay [3] addresses PDE10A (H-PDE10A2, Human Phosphodiesterase 10A2) (Homo sapiens (Human), UniProt Q9Y233). Nature of the assay: Measurement of PDE10A inhibitory activity-1 (3H-cAMP, recombinant enzyme). Format: biochemical. The following applies: H-PDE10A2, 64 nM cAMP, 25° C., 2 hours. As to the method: To a solution containing 20 mM Tris-HCl (pH 7.5), 1 mM MgCl2, 100 μM EDTA, 330 μg/ml bovine serum albumin, 50 kU/ml 5′-nucleotidase, 0.1 μCi ^3H-cAMP (64 nM cAMP), and PDE10A (H-PDE10A2, Human Phosphodiesterase 10A2, Scottish Biomedical), a test compound was added, and the mixture was reacted at 25° C. for 2 hours. To the reaction solution, QAE-Sephadex (17-0190-01, GE Healthcare Japan Corp.) suspended in 10 mM HEPES-Na (pH 7.0) (hereinafter, also referred to as a “QAE-Sephadex suspension”) was added, and the mixture was shaken for 1 minute and left standing for 5 minutes to obtain a supernatant. To the supernatant, a QAE-Sephadex suspension was further added, and the mixture was shaken for 1 minute and left standing for 5 minutes. Then, the obtained supernatant was transferred to LumaPlate (PerkinElmer, Inc.) and assayed using a radiation counter (TopCount NXT, PerkinElmer, Inc.).
The value of the sample reacted without the addition of both a test compound and PDE10A was defined as 0%, and the value of the sample reacted in the presence of PDE10A without the addition of a test compound was defined as 100%.

Assay [4] relates to Male C57BL/6 Cr mice. Nature of the assay: Test on suppression of phencyclidine-induced hyperlocomotion in mice. Format: in vivo, mouse. The following applies: locomotor activity, test compound 10 mg/kg oral, phencyclidine 5 mg/kg s.c. approx. 1 hour later, measured for 1 hour; for inhibition in vivo at 10 mg/kg: Mus musculus, po, 1 h.

Where a name gives a salt, the structure may show the parent alone.

Data on nine compounds can be found in patent US9464076B2, “Benzothiophene derivative” (Daiichi Sankyo Company, Limited, priority 2013, dated 2016).

For orientation: IC50 means the concentration needed to halve the response being measured. The term ED50 denotes the midpoint of the dose-response relation. In general, inhibition in vivo refers to the change of the read-out against control, counted positive when it falls. By % inhibition is commonly meant the relative decrease from the control value, in per cent.

Sequence of PDE10A (H-PDE10A2, Human Phosphodiesterase 10A2) (Q9Y233 267-1055): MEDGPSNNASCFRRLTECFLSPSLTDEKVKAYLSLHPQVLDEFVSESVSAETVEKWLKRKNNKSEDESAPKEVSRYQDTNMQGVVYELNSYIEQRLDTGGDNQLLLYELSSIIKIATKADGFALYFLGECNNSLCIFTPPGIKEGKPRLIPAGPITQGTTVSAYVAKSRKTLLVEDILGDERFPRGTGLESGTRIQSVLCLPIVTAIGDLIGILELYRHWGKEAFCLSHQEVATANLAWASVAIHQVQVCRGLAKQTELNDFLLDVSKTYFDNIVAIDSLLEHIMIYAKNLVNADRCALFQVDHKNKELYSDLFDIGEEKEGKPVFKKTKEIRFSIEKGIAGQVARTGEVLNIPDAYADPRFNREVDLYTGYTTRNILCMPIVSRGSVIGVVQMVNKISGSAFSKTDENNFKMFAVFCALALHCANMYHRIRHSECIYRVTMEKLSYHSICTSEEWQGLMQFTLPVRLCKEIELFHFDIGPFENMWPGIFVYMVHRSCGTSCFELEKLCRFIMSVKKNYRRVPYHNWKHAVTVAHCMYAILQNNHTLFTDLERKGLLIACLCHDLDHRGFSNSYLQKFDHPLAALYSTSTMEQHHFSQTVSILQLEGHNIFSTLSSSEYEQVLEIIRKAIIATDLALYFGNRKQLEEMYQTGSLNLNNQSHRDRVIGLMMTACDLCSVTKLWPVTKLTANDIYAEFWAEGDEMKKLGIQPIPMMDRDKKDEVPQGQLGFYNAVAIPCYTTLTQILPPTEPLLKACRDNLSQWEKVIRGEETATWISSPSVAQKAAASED
Sequence of PDE10A (Q9Y233 whole entry): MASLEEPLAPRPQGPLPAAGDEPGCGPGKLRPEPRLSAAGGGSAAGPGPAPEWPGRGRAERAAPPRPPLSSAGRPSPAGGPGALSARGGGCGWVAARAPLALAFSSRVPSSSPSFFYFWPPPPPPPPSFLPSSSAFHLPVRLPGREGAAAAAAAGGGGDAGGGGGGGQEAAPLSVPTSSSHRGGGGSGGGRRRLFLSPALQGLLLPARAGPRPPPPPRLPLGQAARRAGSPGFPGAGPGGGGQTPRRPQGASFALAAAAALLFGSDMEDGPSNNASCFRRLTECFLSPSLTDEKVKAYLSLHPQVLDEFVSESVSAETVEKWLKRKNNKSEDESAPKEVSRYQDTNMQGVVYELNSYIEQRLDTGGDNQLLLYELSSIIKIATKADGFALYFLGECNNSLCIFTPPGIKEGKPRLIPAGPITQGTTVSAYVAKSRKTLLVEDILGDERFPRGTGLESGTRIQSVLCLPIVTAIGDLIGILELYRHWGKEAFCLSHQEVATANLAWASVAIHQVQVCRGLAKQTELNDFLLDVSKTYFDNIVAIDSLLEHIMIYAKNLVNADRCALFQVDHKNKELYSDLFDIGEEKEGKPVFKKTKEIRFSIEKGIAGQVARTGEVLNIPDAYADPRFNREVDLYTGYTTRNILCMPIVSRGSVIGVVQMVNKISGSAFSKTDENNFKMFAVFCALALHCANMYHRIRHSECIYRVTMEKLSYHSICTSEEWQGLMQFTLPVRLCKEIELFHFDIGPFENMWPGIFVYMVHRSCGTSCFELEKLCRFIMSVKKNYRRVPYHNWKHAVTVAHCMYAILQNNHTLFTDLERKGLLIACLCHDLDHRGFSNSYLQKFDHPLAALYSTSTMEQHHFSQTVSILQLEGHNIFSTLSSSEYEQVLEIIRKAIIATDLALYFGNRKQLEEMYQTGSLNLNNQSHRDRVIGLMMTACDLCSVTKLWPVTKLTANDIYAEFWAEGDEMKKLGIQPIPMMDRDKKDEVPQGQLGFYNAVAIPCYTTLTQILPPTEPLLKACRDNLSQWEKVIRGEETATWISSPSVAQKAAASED

As to `COCc1ccc(C(C)=O)c2sc(C(=O)Nc3cc(CN4CC[C@H](O)C4)c4ccccc4n3)c(C)c12` [Example 38, (S)-7-Acetyl-N-(4-((3-hydroxypyrrolidin-1-yl)methyl)quinolin-2-yl)-4-(methoxymethyl)-3-methylbenzo[b]thiophene-2-carboxamide], the IC50 in assay [1] stood at 0.23 nM; in assay [3], 0.42 nM. For the same compound, the ED50 in assay [2] is 7 mg/kg. Besides, the inhibition in vivo at 10 mg/kg in assay [4] amounted to 88%.
As for `COCc1ccc(C(C)=O)c2sc(C(=O)Nc3cc(CN4CC[C@@H](O)C4)c4ccccc4n3)c(C)c12` [Example 39, (R)-7-Acetyl-N-(4-((3-hydroxypyrrolidin-1-yl)methyl)quinolin-2-yl)-4-(methoxymethyl)-3-methylbenzo[b]thiophene-2-carboxamide], the results for the IC50 in assay [1] and in assay [3] were 0.35 nM and 0.41 nM, respectively. In assay [2], the 50% effective dose (ED50) is 3.1 mg/kg. In addition, the inhibition in vivo at 10 mg/kg in assay [4] is 103%.
Regarding `COCc1ccc(C(C)=O)c2sc(C(=O)Nc3ccc4c(CN5CCOCC5)cccc4n3)c(C)c12.Cl` [Example 61, 7-Acetyl-4-(methoxymethyl)-3-methyl-N-(5-(morpholinomethyl)quinolin-2-yl)benzo[b]thiophene-2-carboxamide hydrochloride], in assay [2], the ED50 is 5.7 mg/kg. Moreover, in assay [4], the inhibition in vivo at 10 mg/kg stood at 122%.
As for `COCc1ccc(C(C)=O)c2sc(C(=O)Nc3ccc4c(CN5CC[C@@H](O)C5)cccc4n3)c(C)c12` [Example 64, (R)-7-Acetyl-N-(5-((3-hydroxypyrrolidin-1-yl)methyl)quinolin-2-yl)-4-(methoxymethyl)-3-methylbenzo[b]thiophene-2-carboxamide dihydrochloride], in assay [1], the IC50 was determined as 0.76 nM. Also, the ED50 in assay [2] is 7.2 mg/kg. In addition, in assay [4], the inhibition in vivo at 10 mg/kg amounted to 109%.
In the case of `COCc1cccc2nc(NC(=O)c3sc4c(C(C)=O)ccc(COC)c4c3C)ccc12.Cl` [Example 68, 7-Acetyl-4-(methoxymethyl)-N-(5-(methoxymethyl)quinolin-2-yl)-3-methylbenzo[b]thiophene-2-carboxamide hydrochloride], the IC50 turned out to be 0.93 nM in assay [1] (hydrochloride) and 1.9 nM in assay [3] (hydrochloride). Also, the median effective dose (ED50) in assay [2] was 3.6 mg/kg. For the same compound, the “% inhibition” value in assay [4] was found to be 121%.
`COCc1cccc2nc(NC(=O)c3sc4c(C(C)=O)ccc(COC)c4c3C)ccc12` [Example 69, 7-Acetyl-4-(methoxymethyl)-N-(5-(methoxymethyl)quinolin-2-yl)-3-methylbenzo[b]thiophene-2-carboxamide methanesulfonate] showed a half-maximal inhibitory concentration (IC50) in assay [1] (methanesulfonate) of 0.38 nM. Also, the ED50 in assay [2] is 3 mg/kg. In addition, in assay [4], the “% inhibition” value stood at 81%.
Consider `COCc1ccc(C(C)=O)c2sc(C(=O)Nc3ccc4c(CO)cccc4n3)c(C)c12.Cc1ccc(S(=O)(=O)O)cc1` [Example 81, 7-Acetyl-N-(5-(hydroxymethyl)quinolin-2-yl)-4-(methoxymethyl)-3-methylbenzo[b]thiophene-2-carboxamide p-toluenesulfonate], for which the ED50 in assay [2] was 3.3 mg/kg. Further, the “% inhibition” value in assay [4] is given as 122%.
In assay [1] (p-toluenesulfonate), `COCc1ccc(C(C)=O)c2sc(C(=O)Nc3ccc4c(C(=O)N5CC(OC)C5)cccc4n3)c(C)c12.Cc1ccc(S(=O)(=O)O)cc1` [Example 106, 7-Acetyl-N-(5-((3-methoxyazetidin-1-yl)carbonyl)quinolin-2-yl)-4-(methoxymethyl)-3-methylbenzo[b]thiophene-2-carboxamide p-toluenesulfonate] gave a half-maximal inhibitory concentration (IC50) of 0.5 nM. Also, the ED50 in assay [2] was 2.2 mg/kg. Further, in assay [4], the “% inhibition” value is reported as 87%.
For the compound `COCc1ccc(C(C)=O)c2sc(C(=O)Nc3ccc4c(CS(C)(=O)=O)cccc4n3)c(C)c12` [Example 110, 7-Acetyl-4-(methoxymethyl)-3-methyl-N-(5-((methylsulfonyl)methyl)quinolin-2-yl)benzo[b]thiophene-2-carboxamide hydrochloride], the values for the IC50 in assay [1] and in assay [3] (hydrochloride) were 0.23 nM and 1.4 nM, respectively. In assay [4], the inhibition in vivo at 10 mg/kg amounted to 76%.
